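Dose response: 5 concentrations. Exposure: 48 h. Format: 96-well plates. Endpoint: linear interpolation; highest concentration if not reached. Definition used: TGI = concentration required for complete inhibition of growth.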
Test system: MOLT-4 leukemia
Test: NCI anticancer screen, dose series, 48 h

Going from c1ccc2c(c1)N=C(c1cccc3ccccc13)CC(c1cccc3ccccc13)S2 (centres undefined) to NS(=O)(=O)c1ccc(NC(=O)c2cccc3c(=O)c4ccccc4[nH]c23)cc1, the TGI rises from 5.15 µM to over 100 µM.

Test system: HCT-116 colon
Test: NCI anticancer screen, dose series, 48 h

First: CCOC(=O)/C(=C/c1ccco1)P(=O)(OCC)OCC
Second: CC(C)(C)c1nc2c(o1)C(=Nc1ccc(F)cc1)c1ccccc1C2=O
The TGI of the first is higher: over 100 µM for the first, 38.2 µM for the second.

Going from C=C1CC2C(=O)N(c3ccccc3)C(=O)C2CC1n1[nH]c(=O)n(Cc2ccccc2)c1=O (centres undefined) to c1ccc2c(c1)N=C(c1cccc3ccccc13)CC(c1cccc3ccccc13)S2 (centres undefined), the TGI falls from over 100 µM to 12.9 µM.

NS(=O)(=O)c1ccc(NC(=O)c2cccc3c(=O)c4ccccc4[nH]c23)cc1 and COc1ccc(C2=NC(C)(C)CO2)cc1 cannot be ordered by TGI: over 100 µM for the first, over 100 µM for the second.

Test system: LXFL 529 NSCLC
Test: NCI anticancer screen, dose series, 48 h

CCOC(=O)/C(=C/c1ccco1)P(=O)(OCC)OCC and CC(C)(C)c1nc2c(o1)C(=Nc1ccc(F)cc1)c1ccccc1C2=O cannot be ordered by TGI: over 100 µM for the first, over 100 µM for the second.

O=C(Nc1ccc(S(=O)(=O)N[C@@H](C(=O)O)c2ccccc2)cc1)c1ccc(F)cc1 and NS(=O)(=O)c1ccc(NC(=O)c2cccc3c(=O)c4ccccc4[nH]c23)cc1 cannot be ordered by TGI: over 100 µM for the first, over 100 µM for the second.

Compared with C=C1CC2C(=O)N(c3ccccc3)C(=O)C2CC1n1[nH]c(=O)n(Cc2ccccc2)c1=O (centres undefined), c1ccc2c(c1)N=C(c1cccc3ccccc13)CC(c1cccc3ccccc13)S2 (centres undefined) is lower in TGI: over 100 µM for the first, 11.4 µM for the second.

Test system: UO-31 renal
Test: NCI anticancer screen, dose series, 48 h

Going from CCOC(=O)/C(=C/c1ccco1)P(=O)(OCC)OCC to CC(C)(C)c1nc2c(o1)C(=Nc1ccc(F)cc1)c1ccccc1C2=O, the TGI falls from over 100 µM to 28.1 µM.

Going from O=C(Nc1ccc(S(=O)(=O)N[C@@H](C(=O)O)c2ccccc2)cc1)c1ccc(F)cc1 to NS(=O)(=O)c1ccc(NC(=O)c2cccc3c(=O)c4ccccc4[nH]c23)cc1, the TGI falls from over 100 µM to 67.8 µM.

First: C=C1CC2C(=O)N(c3ccccc3)C(=O)C2CC1n1[nH]c(=O)n(Cc2ccccc2)c1=O (centres undefined)
Second: c1ccc2c(c1)N=C(c1cccc3ccccc13)CC(c1cccc3ccccc13)S2 (centres undefined)
The TGI of the first is higher: over 100 µM for the first, 23.6 µM for the second.

Test system: MDA-N
Test: NCI anticancer screen, dose series, 48 h

CC(C)(C)c1nc2c(o1)C(=Nc1ccc(F)cc1)c1ccccc1C2=O was tested, and the TGI was 5.35 µM.

Test system: KM12 colon
Test: NCI anticancer screen, dose series, 48 h

First: CCOC(=O)/C(=C/c1ccco1)P(=O)(OCC)OCC
Second: CC(C)(C)c1nc2c(o1)C(=Nc1ccc(F)cc1)c1ccccc1C2=O
The TGI of the first is higher: over 100 µM for the first, 52.5 µM for the second.

Compared with O=C(Nc1ccc(S(=O)(=O)N[C@@H](C(=O)O)c2ccccc2)cc1)c1ccc(F)cc1, NS(=O)(=O)c1ccc(NC(=O)c2cccc3c(=O)c4ccccc4[nH]c23)cc1 is lower in TGI: over 100 µM for the first, 73.6 µM for the second.

Compared with C=C1CC2C(=O)N(c3ccccc3)C(=O)C2CC1n1[nH]c(=O)n(Cc2ccccc2)c1=O (centres undefined), c1ccc2c(c1)N=C(c1cccc3ccccc13)CC(c1cccc3ccccc13)S2 (centres undefined) is lower in TGI: over 100 µM for the first, 9.6 µM for the second.

COc1ccc(C2=NC(C)(C)CO2)cc1 was tested, and the TGI was over 100 µM.

Test system: NCI/ADR-RES ovarian
Test: NCI anticancer screen, dose series, 48 h

In the case of CC(C)(C)c1nc2c(o1)C(=Nc1ccc(F)cc1)c1ccccc1C2=O, the TGI is reported as over 56.7 µM.

Test system: M14 melanoma
Test: NCI anticancer screen, dose series, 48 h

Compared with CCOC(=O)/C(=C/c1ccco1)P(=O)(OCC)OCC, CC(C)(C)c1nc2c(o1)C(=Nc1ccc(F)cc1)c1ccccc1C2=O is lower in TGI: over 100 µM for the first, 9.35 µM for the second.

O=C(Nc1ccc(S(=O)(=O)N[C@@H](C(=O)O)c2ccccc2)cc1)c1ccc(F)cc1 and NS(=O)(=O)c1ccc(NC(=O)c2cccc3c(=O)c4ccccc4[nH]c23)cc1 cannot be ordered by TGI: over 100 µM for the first, over 100 µM for the second.

First: C=C1CC2C(=O)N(c3ccccc3)C(=O)C2CC1n1[nH]c(=O)n(Cc2ccccc2)c1=O (centres undefined)
Second: c1ccc2c(c1)N=C(c1cccc3ccccc13)CC(c1cccc3ccccc13)S2 (centres undefined)
The TGI of the first is higher: over 100 µM for the first, 26.2 µM for the second.

Test system: UACC-62 melanoma
Test: NCI anticancer screen, dose series, 48 h

Compared with CCOC(=O)/C(=C/c1ccco1)P(=O)(OCC)OCC, CC(C)(C)c1nc2c(o1)C(=Nc1ccc(F)cc1)c1ccccc1C2=O is lower in TGI: over 100 µM for the first, 6.62 µM for the second.

O=C(Nc1ccc(S(=O)(=O)N[C@@H](C(=O)O)c2ccccc2)cc1)c1ccc(F)cc1 and NS(=O)(=O)c1ccc(NC(=O)c2cccc3c(=O)c4ccccc4[nH]c23)cc1 cannot be ordered by TGI: over 100 µM for the first, over 100 µM for the second.

Compared with C=C1CC2C(=O)N(c3ccccc3)C(=O)C2CC1n1[nH]c(=O)n(Cc2ccccc2)c1=O (centres undefined), c1ccc2c(c1)N=C(c1cccc3ccccc13)CC(c1cccc3ccccc13)S2 (centres undefined) is lower in TGI: over 100 µM for the first, 19.8 µM for the second.

Molecule COc1ccc(C2=NC(C)(C)CO2)cc1 has a TGI of over 100 µM.

Test system: OVCAR-5 ovarian
Test: NCI anticancer screen, dose series, 48 h

Going from CCOC(=O)/C(=C/c1ccco1)P(=O)(OCC)OCC to CC(C)(C)c1nc2c(o1)C(=Nc1ccc(F)cc1)c1ccccc1C2=O, the TGI falls from over 100 µM to 34.3 µM.

O=C(Nc1ccc(S(=O)(=O)N[C@@H](C(=O)O)c2ccccc2)cc1)c1ccc(F)cc1 and NS(=O)(=O)c1ccc(NC(=O)c2cccc3c(=O)c4ccccc4[nH]c23)cc1 cannot be ordered by TGI: over 100 µM for the first, over 100 µM for the second.

Going from C=C1CC2C(=O)N(c3ccccc3)C(=O)C2CC1n1[nH]c(=O)n(Cc2ccccc2)c1=O (centres undefined) to c1ccc2c(c1)N=C(c1cccc3ccccc13)CC(c1cccc3ccccc13)S2 (centres undefined), the TGI falls from over 100 µM to 16.8 µM.

COc1ccc(C2=NC(C)(C)CO2)cc1 showed a TGI of over 100 µM.

Source: PubChem BioAssay (NCI)
